Measurements taken from US20240041042A1, “1-(PYRIDYL)-5-AZINYLPYRAZOLE DERIVATIVES, AND THEIR USE FOR CONTROL OF UNDESIRED PLANT GROWTH” (Bayer Aktiengesellschaft, priority 2020, published 2024).

Legend:
Assay type in all cases: in vivo
Avena fatua (AVEFA) [1] = test: Pre-emergence herbicidal action against AVEFA; conditions: visual scoring after about 3 weeks vs untreated controls
In short: (§1)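 Seeds sown in pots and covered with soil; WP or EC formulations sprayed onto the soil surface at 600 l/ha water with 0.5% additive, at 320 g/ha or lower. Greenhouse growth for about 3 weeks, then visual scoring as % effect against untreated controls (100% = plants dead).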

Setaria viridis (SETVI) [2] = test: Post-emergence herbicidal action against SETVI
In short: (§2)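 Post-emergence greenhouse spray, one-leaf stage, 600 l/ha water plus 0.5% additive; WP or EC formulations; application rates 320 g/ha or lower. Visual % damage vs untreated controls at ~3 weeks.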

[3] = tested on: Polygonum convolvulus (POLCO); test: Pre-emergence herbicidal action against POLCO
In short: as §1

[4] = tested on: Pharbitis purpurea (PHBPU); test: Post-emergence herbicidal action against PHBPU; conditions: dosage 320 g/ha
In short: as §2

[5] = tested on: Alopecurus myosuroides (ALOMY); test: Post-emergence herbicidal action against ALOMY; conditions: visual rating about 3 weeks after treatment vs untreated controls (100% = plants have died, 0% = like control plants)
In short: as §2

[6] = tested on: Verconica persica (VERPE); test: Pre-emergence herbicidal action against VERPE; conditions: dosage 320 g/ha
In short: as §1

Lolium rigidum (LOLRI) [7] = test: Pre-emergence herbicidal action against LOLRI
In short: as §1

[8] = tested on: Abutilon theophrasti (ABUTH); test: Pre-emergence herbicidal action against ABUTH; conditions: Dosage column 320 g/ha (title prints 3200 g/ha); scored visually after about 3 weeks; 100% = plants have died
Description: Seeds of monocotyledonous and dicotyledonous weed plants and crop plants are placed in plastic or organic planting pots and covered with soil. The compounds of the invention, formulated in the form of wettable powders (WP) or as emulsion concentrates (EC), are then applied to the surface of the covering soil as aqueous suspension or emulsion with addition of 0.5% additive at a water application rate equivalent to 600 l/ha. After the treatment, the pots are placed in a greenhouse and kept under good growth conditions for the trial plants. After about 3 weeks, the effect of the preparations is scored visually in comparison with untreated controls as percentages. For example, 100% activity=the plants have died, 0% activity=like control plants.
Tables A1 to A13 below show the effects of selected compounds of the general formula (I) on various harmful plants and at an application rate corresponding to 320 g/ha or lower, which were obtained by the experimental procedure mentioned above. The appendices “a”, “b” and “c” give differentiation by dosage used with otherwise the same harmful plants tested.

[9] = tested on: Verconica persica (VERPE); test: Post-emergence herbicidal action against VERPE
In short: as §2

[10] = tested on: Matricaria inodora (MATIN); test: Pre-emergence herbicidal action against MATIN; conditions: dosage 320 g/ha
In short: as §1

[11] = tested on: Polygonum convolvulus (POLCO); test: Post-emergence herbicidal action against POLCO
In short: as §2

[12] = tested on: Amaranthus retroflexus (AMARE); test: Post-emergence herbicidal action against AMARE
In short: as §2

Viola tricolor (VIOTR) [13] = test: Pre-emergence herbicidal action against VIOTR
In short: as §1

Lolium rigidum (LOLRI) [14] = test: Post-emergence herbicidal action against LOLRI
In short: as §2

Viola tricolor (VIOTR) [15] = test: Post-emergence herbicidal action against VIOTR
In short: as §2

[16] = tested on: Alopecurus myosuroides (ALOMY); test: Pre-emergence herbicidal action against ALOMY; conditions: scored visually after about 3 weeks, 100% = plants have died
In short: as §1

[17] = tested on: Amaranthus retroflexus (AMARE); test: Pre-emergence herbicidal action against AMARE; conditions: visual scoring after about 3 weeks vs untreated controls
In short: as §1

[18] = tested on: Abutilon theophrasti (ABUTH); test: Post-emergence herbicidal action against ABUTH; conditions: visual rating about 3 weeks after treatment vs untreated controls (100% = plants have died, 0% = like control plants)
In short: as §2

Avena fatua (AVEFA) [19] = test: Post-emergence herbicidal action against AVEFA; conditions: visual rating about 3 weeks after treatment
In short: as §2

[20] = tested on: Echinochloa crus-galli (ECHCG); test: Pre-emergence herbicidal action against ECHCG
In short: as §1

Oryza sativa (ORYSA) = conditions: crop plant compatibility, 80 g/ha, effect in comparison to untreated controls
In short: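 Percent effect on the crop was judged by eye against untreated controls, where 0% means like control and 100% means dead plants. Plants had been sprayed post-emergence at the one-leaf stage and then kept under optimum greenhouse conditions for about 3 weeks.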

[21] = tested on: Echinochloa crus-galli (ECHCG); test: Post-emergence herbicidal action against ECHCG
In short: as §2

Setaria viridis (SETVI) [22] = test: Pre-emergence herbicidal action against SETVI
In short: as §1

[23] = 80 g/ha, visual rating about 3 weeks after treatment vs untreated controls (100% = plants have died, 0% = like control plants)
[24] = 320 g/ha, visual rating about 3 weeks after treatment

Compound	Pre-emergence action against AVEFA in % (Avena fatua (AVEFA) [1]; 80 g/ha) [%]	Pre-emergence action against AVEFA in % (Avena fatua (AVEFA) [1]; 320 g/ha) [%]	Post-emergence action against SETVI in % (Setaria viridis (SETVI) [2]; dosage 80 g/ha) [%]	Post-emergence action against SETVI in % (Setaria viridis (SETVI) [2]; dosage 320 g/ha) [%]	Pre-emergence action against POLCO in % ([3]; dosage 320 g/ha) [%]	Post-emergence action against PHBPU in % [4] [%]	Post-emergence action against ALOMY in % ([5]; 80 g/ha) [%]	Post-emergence action against ALOMY in % ([5]; 320 g/ha) [%]	Pre-emergence action against VERPE in % [6] [%]	Pre-emergence action against LOLRI in % (Lolium rigidum (LOLRI) [7]; dosage 80 g/ha) [%]	Pre-emergence action against LOLRI in % (Lolium rigidum (LOLRI) [7]; dosage 320 g/ha) [%]	Pre-emergence action against ABUTH [8] [%]	Post-emergence action against VERPE in % ([9]; 320 g/ha, VERPE) [%]	Post-emergence action against VERPE in % ([9]; dosage 80 g/ha) [%]	Pre-emergence action against MATIN in % [10] [%]	Post-emergence action against AMARE in % [12, 23] [%]	Post-emergence action against AMARE in % [12, 24] [%]	Pre-emergence action against VIOTR in % (Viola tricolor (VIOTR) [13]; 320 g/ha, Viola tricolor) [%]	Pre-emergence action against VIOTR in % (Viola tricolor (VIOTR) [13]; dosage 80 g/ha) [%]	Post-emergence action against LOLRI in % (Lolium rigidum (LOLRI) [14]; dosage 320 g/ha) [%]	further results
COC(=O)CNC(=O)[C@@H](C)Oc1nn(-c2ccccn2)c(-c2ccc(F)nc2)c1Cl [Example I-339]	100	100	90	90	100	80	90	100	100	100	100	90	90	80	100	90	90	100	100	90	Pre-emergence action against POLCO in % ([3]; dosage 80 g/ha): 90%; Post-emergence action against POLCO in % ([11]; dosage 80 g/ha): 90%; Post-emergence action against POLCO in % ([11]; dosage 320 g/ha): 90%; Post-emergence action against LOLRI in % (Lolium rigidum (LOLRI) [14]; dosage 80 g/ha): 90%; Post-emergence action against VIOTR in % (Viola tricolor (VIOTR) [15]; 80 g/ha): 90%; Post-emergence action against VIOTR in % (Viola tricolor (VIOTR) [15]; 320 g/ha): 90%; Pre-emergence action against ALOMY ([16]; 80 g/ha): 100%; Pre-emergence action against ALOMY ([16]; 320 g/ha): 100%; Pre-emergence action against AMARE in % ([17]; 80 g/ha): 100%; Pre-emergence action against AMARE in % ([17]; 320 g/ha): 100%; Post-emergence action against ABUTH in % ([18]; 80 g/ha): 80%; Post-emergence action against ABUTH in % ([18]; 320 g/ha): 90%; Post-emergence action against AVEFA in % (Avena fatua (AVEFA) [19]; 80 g/ha): 90%; Post-emergence action against AVEFA in % (Avena fatua (AVEFA) [19]; 320 g/ha): 90%; Pre-emergence action against ECHCG in % ([20]; dosage 320 g/ha): 100%; Post-emergence action against ORYSA in % (Oryza sativa (ORYSA)): 0%; Post-emergence action against ECHCG in % ([21]; dosage 80 g/ha): 90%; Post-emergence action against ECHCG in % ([21]; dosage 320 g/ha): 90%; Pre-emergence action against SETVI in % (Setaria viridis (SETVI) [22]; dosage 80 g/ha): 100%; Pre-emergence action against SETVI in % (Setaria viridis (SETVI) [22]; dosage 320 g/ha): 100%
COC(=O)[C@@H](C)Oc1nn(-c2ccnc(Cl)c2)c(-c2ccc(F)nc2)c1Br [III-22]	80	100	100	100	100	80	100	100	100	100	100	100	90	80	100	90	90	100	90	100	Post-emergence action against VIOTR in % (Viola tricolor (VIOTR) [15]; 80 g/ha): 90%; Post-emergence action against VIOTR in % (Viola tricolor (VIOTR) [15]; 320 g/ha): 90%; Pre-emergence action against ALOMY ([16]; 80 g/ha): 100%; Pre-emergence action against ALOMY ([16]; 320 g/ha): 100%; Pre-emergence action against AMARE in % ([17]; 80 g/ha): 90%; Pre-emergence action against AMARE in % ([17]; 320 g/ha): 100%; Post-emergence action against ABUTH in % ([18]; 80 g/ha): 90%; Post-emergence action against ABUTH in % ([18]; 320 g/ha): 90%; Post-emergence action against AVEFA in % (Avena fatua (AVEFA) [19]; 80 g/ha): 100%; Post-emergence action against AVEFA in % (Avena fatua (AVEFA) [19]; 320 g/ha): 100%; Pre-emergence action against ECHCG in % ([20]; dosage 80 g/ha): 100%; Pre-emergence action against ECHCG in % ([20]; dosage 320 g/ha): 100%; Post-emergence action against ORYSA in % (Oryza sativa (ORYSA)): 0%; Post-emergence action against ECHCG in % ([21]; dosage 80 g/ha): 100%; Post-emergence action against ECHCG in % ([21]; dosage 320 g/ha): 100%; Pre-emergence action against SETVI in % (Setaria viridis (SETVI) [22]; dosage 80 g/ha): 100%; Pre-emergence action against SETVI in % (Setaria viridis (SETVI) [22]; dosage 320 g/ha): 100%
